One assay has as its system HSV-1. As to the kind of experiment: Antiviral activity, HSV-1 in Vero cells, plaque method. The format is cell-based. The note with it: Human alphaherpesvirus 1, 20 hours, 90% inhibition of plaque formation. As to the method:
An Assay Method for Antiviral Activity These complementary assay methods examine the capacity of a compound to inhibit the generation of new viruses and to inhibit the toxicity of the compound against the host cell. Toxicity indirectly decreases the generation of viruses. Thus, it is important to simultaneously conduct both assays in order to directly compare the results. The Vero cells were sown on a 96-well plate and then cultured overnight. The culture supernatant was removed, and 100 μl of 2% FBS-DMEM containing 50,000 plaque-forming units (hereinafter abbreviated as “pfu”) of HSV-1 was added. A viral solution was removed and 200 μl of 2% FBS-DMEM comprising a test compound was added. In this case, a substance to which 2% FBS-DMEM not comprising any test compound had been added was determined as a control. These infected cells were incubated in the presence of 5% CO2 at 37° C. for 20 hours, and the medium was once allowed to freeze at −80° C. The culture solution was dissolved, and the amount of viruses in the culture solution was assayed by the plaque method. The concentration of the test compound when it inhibited 90% of plaque formation relative to the control was determined to be EC 90.

Another assay has as its target T1, HSV-1 protease (Human herpesvirus 1, UniProt P10210).
T1 construct: 6xHis (N); made in house; host or cells: baculovirus expression system
The assay can be described thus: Enzymatic assay for HSV-1 protease (assembly) inhibitor, fluorescence polarization. Type of assay: biochemical. The note with it: read-out: HSV-1 Enzyme inhibition IC50. As to the method: An enzymatic assay method for an HSV-1 protease (assembly) inhibitor
The activity of an assembly protease was determined by fluorescence polarization. Biotin-gamma-amino butyrate-[…]-DTAF was used as a fluorescent substrate in accordance with an HSV-1 release and cleavage site. […] Changes in the sizes of fluorescent substrate molecules that increased with the use of avidin as a reaction terminator were assayed by fluorescence polarization.
The test compound was dissolved in DMF, and the resultant was diluted 5-fold with an assay buffer. 6.5 μl thereof was added to wells of a 96-well plate (a U-bottomed 96-well plate, Coster) that had previously been blocked with a blocking solution (10 mM Tris-HCl (pH 8.0), 150 mM sodium chloride, 0.05% Tween 20, 1 mg/ml of BSA). The enzyme was diluted to 21.3 μg/ml with an assay buffer (1M sodium citrate, 50 mM sodium phosphate (pH 7.4), 100 mM sodium chloride, 20% glycerol, 2 mM TCEP), and 48.5 μl of the resultant was added to each well. The plate was incubated at room temperature for 30 minutes, and 10 μl of 62.5 μg/ml substrate solution was then added to each well. The plate was incubated at room temperature for 60 minutes, and 50 μl of 2 mg/ml avidin phosphate buffer solution (50 mM sodium phosphate, 100 mM sodium chloride (pH 7.4)) was added to each well. The activity was determined in comparison with a compound without protease inhibitor using a microplate reader for fluorescence polarization.
HSV-1 protease was purified from a vaculovirus that had expressed a DNA construct encoding the reading frame for HSV-1UL26. This construct had further encoded 6 histidine residues at the amino terminus of the protease. These additional histidine residues impart affinity ligands purified by nickel-nitriloacetic acid-agarose (Qiagen). The purified protease was stored as a stock solution for a 20 mM HEPES buffer (pH 8.5, containing 20% v/v glycerin). This stock solution was diluted with an assay buffer and then used in the enzyme reaction.
In accordance with the cleavage specificity of the HSV-1 protease at the “release site” of the assembled protein, a specific substrate was synthesized (Diianni et al., J. Biol. Chem. 268, 2048 (1993)). This assembly protein-release site had the sequence • HTYLQA*SEKFKMW • , and the substrate used was biotin-gamma-amino butyrate-HTYLQA*SERFRIK-DTAF. This is a standard method for peptide synthesis, for example, as in the a method described in “The Practice of Peptide Synthesis” (Bodansky and Bodansky (1984)). The product was stored as a 2.5 mg/ml stock solution in DMF. The resultant was diluted to 62.5 μg/ml with a phosphate buffer (50 mM sodium phosphate, 100 mM sodium chloride, (pH 7.4)) immediately before its use.
An assay buffer (1M sodium citrate, 50 mM sodium phosphate (pH 7.4), 100 mM sodium chloride, 20% glycerol, 2 mM TCEP) was used to dilute a stock solution for the enzyme and that for the inhibitor.

pIC50: −log10 of the molar value. Where only a bound is given, the exact number is not on record here.

This is an account of results in patent publication US20040116420A1 (priority 2001, published 2004).

T1 sequence (P10210 1-247): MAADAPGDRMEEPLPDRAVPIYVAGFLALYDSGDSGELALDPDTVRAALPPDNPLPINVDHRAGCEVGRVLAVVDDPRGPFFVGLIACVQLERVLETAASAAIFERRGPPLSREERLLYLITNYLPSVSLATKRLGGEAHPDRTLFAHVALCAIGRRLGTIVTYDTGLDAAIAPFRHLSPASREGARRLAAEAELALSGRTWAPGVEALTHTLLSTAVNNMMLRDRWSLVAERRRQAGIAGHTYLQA

`Cc1c(NC(=O)OC(C)(C)C)ccc2nc(NC(C)(C)C(=O)N(C)Cc3cccnc3)oc(=O)c12` [Compound No.117, {5-Methyl-2-[1-methyl-1-(methyl-pyridin-3-ylmethyl-carbamoyl)-ethylamino]-4-oxo-4H-benzo[d][1,3]oxazin-6-yl}-carbamic acid tert-butyl ester] gave an EC90 in the assay with HSV-1 above 12.5 µM. The pIC50 on HSV-1 protease is 6.15.
On the same counts, the results for `Cc1c(NC(=O)OC(C)(C)C)ccc2nc(NCCC(=O)N(C)CCc3ccccn3)oc(=O)c12` [Compound No.133, (5-Methyl-2-{2-[methyl-(2-pyridin-2-yl-ethyl)-carbamoyl]-ethylamino}-4-oxo-4H-benzo[d][1,3]oxazin-6-yl)-carbamic acid tert-butyl ester] are above 20 µM and 6.05.
On the same counts, the results for `CCCCc1ccc(C(=O)NCCCC(=O)Nc2ccc3nc(NC(C)(C)C(=O)N(C)CCc4ccccn4)oc(=O)c3c2C)cc1` [Compound No.214, 4-Butyl-N-[3-(5-methyl-2-{1-methyl-1-[methyl-(2-pyridin-2-yl-ethyl)-carbamoyl]-ethylamino}-4-oxo-4H-benzo[d][1,3]oxazin-6-ylcarbamoyl)-propyl]-benzamide] are above 12.5 µM and 6.52.
Take `CCCCc1ccc(C(=O)NCCC(=O)Nc2ccc3nc(N[C@@H](C)C(=O)N(C)CCc4ccccn4)oc(=O)c3c2C)cc1` [Compound No.217, 4-Butyl-N-[2-(5-methyl-2-{1S-[methyl-(2-pyridin-2-yl-ethyl)-carbamoyl]-ethylamino}-4-oxo-4H-benzo[d][1,3]oxazin-6-ylcarbamoyl)-ethyl]-benzamide]: in the assay on HSV-1, the EC90 is above 12.5 µM. Also, the pIC50 on HSV-1 protease was 5.33.
In turn, `Cc1c(NC(=O)OC(C)(C)C)ccc2nc(NCC(=O)N(C)CCc3ccccn3)oc(=O)c12` [Compound No.130, [5-methyl-2-({[methyl-(2-pyridin-2-yl-ethyl)-carbamoyl]-methyl}-amino)-4-oxo-4H-benzo[d][1,3]oxazin-6-yl]-carbamic Acid Tert-Butyl Ester] showed an EC90 in the assay on HSV-1 above 20 µM. In addition, the pIC50 on HSV-1 protease was 6.40.
On the same counts, the results for `Cc1c(NC(=O)CCNC(=O)c2cccs2)ccc2nc(N[C@@H](C)C(=O)N(C)CCc3ccccn3)oc(=O)c12` [Compound No.215, Thiophene-2-carboxylic acid [2-(5-methyl-2-{1S-[methyl-(2-pyridin-2-yl-ethyl)-carbamoyl]-ethylamino}-4-oxo-4H-benzo[d][1,3]oxazin-6-ylcarbamoyl)-ethyl]-amide] are above 12.5 µM and 5.49.
The molecule `Cc1c(NC(=O)OC(C)(C)C)ccc2nc(NC3(C(=O)N(C)Cc4ccncc4)CCCC3)oc(=O)c12` [Compound No.121, {5-Methyl-2-[1-(methyl-pyridin-4-ylmethyl-carbamoyl)-cyclopentylamino]-4-oxo-4H-benzo[d][1,3]oxazin-6-yl}-carbamic acid tert-butyl ester] yielded an EC90 in the assay on HSV-1 of 11.5 µM. The pIC50 on HSV-1 protease was 5.55.
On the same counts, the results for `Cc1c(NC(=O)CCNC(=O)OC(C)(C)C)ccc2nc(NCC(=O)N(C)CCc3ccccn3)oc(=O)c12` [Compound No.228, {2-[5-Methyl-2-({[methyl-(2-pyridin-2-yl-ethyl)-carbamoyl]-methyl}-amino)-4-oxo-4H-benzo[d][1,3]oxazin-6-ylcarbamoyl]-ethyl}-carbamic acid tert-butyl ester] are above 20 µM and 6.15.
`Cc1c(NC(=O)OC(C)(C)C)ccc2nc(NC3(C(=O)N(C)CCc4ccccn4)CCCCC3)oc(=O)c12` [Compound No.124, (5-Methyl-2-{1-[methyl-(2-pyridin-2-yl-ethyl)-carbamoyl]-cyclohexylamino}-4-oxo-4H-benzo[d][1,3]oxazin-6-yl)-carbamic acid tert-butyl ester]: the EC90 with HSV-1 came to 6.1 µM. Also, on HSV-1 protease, the pIC50 was 6.00.
